{
  "source": "patent US20110052690A1",
  "about": "“PROCESS FOR MANUFACTURE OF A MEDICAMENT WITH GRANULATION AND PAN COATING” (priority 2008, published 2011)",
  "origin": "cited, not measured here",
  "details": "plural daily dosing regime, compressed tablets",
  "note": "Counter-ions that a name gives are not always drawn.",
  "data": [
    {"compound": "COc1ccc(C(CN(C)C)C2(O)CCCCC2)cc1", "note": "(centres unmarked) [venlafaxine hydrochloride, 1-[(2-dimethylamino)-1-(4-methoxyphenyl)ethyl] cyclohexanol]", "values": [
      {"measurement": "patients experiencing nausea", "result": "about forty five"},
      {"measurement": "patients in whom vomiting occurs", "result": "about seventeen"}
    ]}
  ]
}
